Test results taken from patent US7981879B2, “HIV integrase inhibitors” (Instituto di Ricerchi di Biologia Molecolare P. Angeletti …, priority 2005, dated 2011).

tested on: HIV; experiment: Assay for inhibition of HIV replication (spread assay): acute HIV infection of T-lymphoid cells; assay type: cell-based; conditions: Human immunodeficiency virus 1, T-lymphoid, read-out: CIC95, inhibition of HIV replication
Description: Assays for the inhibition of acute HIV infection of T-lymphoid cells (alternatively referred to herein as the “spread assay”) were conducted in accordance with Vacca, J. P. et al., Proc. Natl. Acad. Sci. USA 1994, 91: 4096. […] The other compounds in Table 1 were tested in the spread assay up to 1 micromolar, but specific IC95 values were not obtained; i.e., the IC95 values were greater than 1 micromolar. It is believed, however, that the IC95 values of these compounds would be less than about 50 micromolar.

Compound	IC95 [nM]
CN1Cn2c(nc(C(=O)NCc3ccc(F)cc3)c(O)c2=O)C12CCCCC2 [Compound 1, N-(4-fluorobenzyl)-3′-hydroxy-7′-methyl-4′-oxo-6′,7′-dihydro-4′H-spiro[cyclohexane-1,8′-imidazo[1,5-a]pyrimidine]-2′-carboxamide]	< 1000

same assay, conditions: Human immunodeficiency virus 1; spread assay, T-lymphoid cells; read-out: CIC95, inhibition of HIV replication

Compound	IC95 [nM]
CC(C)CNC1CN(C)CCn2c1nc(C(=O)NCc1ccc(F)cc1)c(O)c2=O (centres unmarked) [Compound 169, N-(4-fluorobenzyl)-3-hydroxy-10-(isobutylamino)-8-methyl-4-oxo-4,6,7,8,9,10-hexahydropyrimido[1,2-d][1,4]diazepine-2-carboxamide]	1000 to 10000
O=C(NCc1ccc(F)cc1)c1nc2n(c(=O)c1O)CCNC21CCOCC1 [Compound 29, N-(4-fluorobenzyl)-3′-hydroxy-4′-oxo-2,3,5,6,7′,8′-hexahydro-4′H,6′H-spiro[pyran-4,9′-pyrazino[1,2-a]pyrimidine]-2′-carboxamide]	< 1000
CN1CCn2c(nc(C(=O)NCc3ccc(F)cc3)c(O)c2=O)C(NC(=O)C(=O)N(C)C)C1 (centres unmarked) [Compound 160, N′-(2-{[(4-fluorobenzyl)amino]carbonyl}-3-hydroxy-8-methyl-4-oxo-4,6,7,8,9,10-hexahydropyrimido[1,2-d][1,4]diazepin-10-yl)-N,N-dimethylethanediamide]	< 1000
CN(C)C(=O)CN1CCn2c(nc(C(=O)NCc3ccc(F)cc3)c(O)c2=O)C1(C)C [Compound 64, 8-[2-(dimethylamino)-2-oxoethyl]-N-(4-fluorobenzyl)-3-hydroxy-9,9-dimethyl-4-oxo-6,7,8,9-tetrahydro-4H-pyrazino[1,2-a]pyrimidine-2-carboxamide]	1000 to 10000
CC(=O)N1CCn2c(nc(C(=O)NCc3ccc(F)cc3)c(O)c2=O)C1COCc1ccccc1 (centres unmarked) [Compound 12, 8-acetyl-9-[(benzyloxy)methyl]-N-(4-fluorobenzyl)-3-hydroxy-4-oxo-6,7,8,9-tetrahydro-4H-pyrazino[1,2-a]pyrimidine-2-carboxamide]	1000 to 10000
CN1CCn2c(nc(C(=O)NCc3ccc(F)cc3)c(O)c2=O)C12CCOCC2 [Compound 30, N-(4-fluorobenzyl)-3′-hydroxy-8′-methyl-4′-oxo-2,3,5,6,7′,8′-hexahydro-4′H,6′H-spiro[pyran-4,9′-pyrazino[1,2-a]pyrimidine]-2′-carboxamide]	< 1000
CN1CCn2c(nc(C(=O)NCc3ccc(F)cc3)c(O)c2=O)C(N(C)Cc2ccccc2)C1 (centres unmarked) [Compound 159, 10-[benzyl(methyl)amino]-N-(4-fluorobenzyl)-3-hydroxy-8-methyl-4-oxo-4,6,7,8,9,10-hexahydropyrimido[1,2-d][1,4]diazepine-2-carboxamide]	1000 to 10000
CC(=O)N(CC(C)C)C1CN(C)CCn2c1nc(C(=O)NCc1ccc(F)cc1)c(O)c2=O (centres unmarked) [Compound 161, 10-[acetyl(isobutyl)amino]-N-(4-fluorobenzyl)-3-hydroxy-8-methyl-4-oxo-4,6,7,8,9,10-hexahydropyrimido[1,2-d][1,4]diazepine-2-carboxamide]	< 1000
O=C(NCc1ccc(F)cc1)c1nc2n(c(=O)c1O)CCNC2COCc1ccccc1 (centres unmarked) [Compound 9, 9-[(benzyloxy)methyl]-N-(4-fluorobenzyl)-3-hydroxy-4-oxo-6,7,8,9-tetrahydro-4H-pyrazino[1,2-a]pyrimidine-2-carboxamide]	< 1000
CN1CCn2c(nc(C(=O)NCc3ccc(F)cc3)c(O)c2=O)C1CS(C)(=O)=O (centres unmarked) [Compound 28, N-(4-fluorobenzyl)-3-hydroxy-8-methyl-9-[(methylsulfonyl)methyl]-4-oxo-6,7,8,9-tetrahydro-4H-pyrazino[1,2-a]pyrimidine-2-carboxamide]	1000 to 10000
CC(=O)N(C)C1CN(C)CCn2c1nc(C(=O)NCc1ccc(F)cc1)c(O)c2=O (centres unmarked) [Compound 170, 10-[acetyl(methyl)amino]-N-(4-fluorobenzyl)-3-hydroxy-8-methyl-4-oxo-4,6,7,8,9,10-hexahydropyrimido[1,2-d][1,4]diazepine-2-carboxamide]	< 1000
CC1(C)NCCCn2c1nc(C(=O)NCc1ccc(F)cc1)c(O)c2=O [Compound 175, N-(4-fluorobenzyl)-3-hydroxy-10,10-dimethyl-4-oxo-4,6,7,8,9,10-hexahydropyrimido[1,2-a][1,4]diazepine-2-carboxamide]	< 1000
CN1Cn2c(nc(C(=O)NCc3ccc(F)cc3)c(O)c2=O)C1(C)C [Compound 5, N-(4-fluorobenzyl)-3-hydroxy-7,8,8-trimethyl-4-oxo-4,6,7,8-tetrahydroimidazo[1,5-a]pyrimidine-2-carboxamide]	< 1000
CN1CCn2c(nc(C(=O)NCc3ccc(F)cc3)c(O)c2=O)C1COCc1ccccc1 (centres unmarked) [Compound 11, 9-[(benzyloxy)methyl]-N-(4-fluorobenzyl)-3-hydroxy-8-methyl-4-oxo-6,7,8,9-tetrahydro-4H-pyrazino[l,2-a]pyrimidine-2-carboxamide]	1000 to 10000
CC1(C)c2nc(C(=O)NCc3ccc(F)cc3)c(O)c(=O)n2CN1Cc1cccnc1 [Compound 6, N-(4-fluorobenzyl)-3-hydroxy-8,8-dimethyl-4-oxo-7-(pyridin-3-ylmethyl)-4,6,7,8-tetrahydroimidazo[1,5-a]pyrimidine-2-carboxamide]	< 1000
CN1CCCn2c(nc(C(=O)NCc3ccc(F)cc3)c(O)c2=O)C1(C)C [Compound 176, N-(4-fluorobenzyl)-3-hydroxy-9,10,10-trimethyl-4-oxo-4,6,7,8,9,10-hexahydropyrimido[1,2-a][1,4]diazepine-2-carboxamide]	< 1000
CN1CCn2c(nc(C(=O)NCc3ccc(F)cc3)c(O)c2=O)C(N(C)S(C)(=O)=O)C1 (centres unmarked) [Compound 163, N-(4-fluorobenzyl)-3-hydroxy-8-methyl-10-[methyl(methylsulfonyl)amino]-4-oxo-4,6,7,8,9,10-hexahydropyrimido[1,2-d][1,4]diazepine-2-carboxamide]	< 1000
CN1Cn2c(nc(C(=O)NCc3ccc(F)cc3S(C)(=O)=O)c(O)c2=O)C1(C)C [Compound 2, N-[4-fluoro-2-(methylsulfonyl)benzyl]-3-hydroxy-7,8,8-trimethyl-4-oxo-4,6,7,8-tetrahydroimidazo[1,5-a]pyrimidine-2-carboxamide]	< 1000
CC1c2nc(C(=O)NCc3ccc(F)cc3)c(O)c(=O)n2CCN1C (centres unmarked) [Compound 32, N-(4-fluorobenzyl)-3-hydroxy-8,9-dimethyl-4-oxo-6,7,8,9-tetrahydro-4H-pyrazino[1,2-a]pyrimidine-2-carboxamide]	< 1000
CSCC1NCCn2c1nc(C(=O)NCc1ccc(F)cc1)c(O)c2=O (centres unmarked) [Compound 27, N-(4-fluorobenzyl)-3-hydroxy-9-[(methylthio)methyl]-4-oxo-6,7,8,9-tetrahydro-4H-pyrazino[1,2-a]pyramidine-2-carboxamide]	< 1000
COC(=O)N(C)C1CN(C)CCn2c1nc(C(=O)NCc1ccc(F)cc1)c(O)c2=O (centres unmarked) [Compound 166, methyl (2-{[(4-fluorobenzyl)amino]carbonyl}-3-hydroxy-8-methyl-4-oxo-4,6,7,8,9,10-hexahydropyrimido[1,2-d][1,4]diazepin-10-yl)methylcarbamate]	< 1000
CC1(C)NS(=O)(=O)Cn2c1nc(C(=O)NCc1ccc(F)cc1)c(O)c2=O [Compound 105, N-(4-fluorobenzyl)-3-hydroxy-9,9-dimethyl-4-oxo-8,9-dihydro-4H-pyrimido[2,1-d][1,2,5]thiadiazine-2-carboxamide 7,7-dioxide]	1000 to 10000
